Measured values taken from patent US10344279B2, “Methods for the prevention and the treatment of extracapillary glomerulonephritis” (INSERM (Institut National de la Sante et de la Recherche …, priority 2014, dated 2019).

Assays:
miR-92a [1] = assay: miR-92a expression in kidney / isolated glomeruli of NTS-challenged mice (in situ hybridization, RT-qPCR); assay type: in vivo
Procedure: The glomerulonephritis was induced on male mice (10-12 weeks of age) by intravenous injection of 15 μL of sheep anti-glomerular basement membrane (GBM) nephrotoxic serum (NTS), which was diluted with 85 μL of sterile phosphate buffer solution. Serum injections were repeated twice (on days 2 and 3) at 6 μL/g of body weight and 7 μL/g respectively.
For miRNA expression analysis, RNA from kidney cortex were prepared with Trizol (Life Technologies) according to manufacturer's instructions. miRNA expression was determined using Taqman miRNA assay (Life technologies) according to manufacturer's protocols. U6 snRNA was used as endogenous control.
In situ hybridization was performed as previously described by Bonaucr et al (66). Briefly, 5 μm-thick kidney paraffin embedded sections were cut and fixed in PFA 4% for 10 min. Then sections were washed with 1× PBS and then acetylated for 10 min. After washes, sections were incubated with […] (Sigma-Aldrich) for 10 min. at 37° C. After washings, sections were incubated with hybridization buffer for 5 h at room temperature. miRNA probes (miR-92a probe double-DIG labeled LNA probes, Exiqon, final concentration 20 nM) was mixed with denaturation buffer and added to the sections followed by incubation over night at 56° C. U6snRNA probe (3′-DIG labeled LAN, probe, Exiqon) was used at 10 nM final concentration and as a positive control. […]

primary podocytes = assay: Wound assay of podocyte migration; assay type: cell-based, mouse; conditions: Stattic 2 μM, migration within 12 hours
Procedure: After 4 days of primary culture, podocytes were trypsinized then plated into μ-Dish 35 mm high with Culture-Insert (Ibidi). Ibidi's wounding inserts were used for cell migration studies. The coverage of the 500-μm gap was assessed after 12 hours of culture and podocyte migration area was quantified using ImageJ software. The effects of HB-EGF (10 ng/mL, Preprotech) or AG1478 (1 μM, Calbiochem) or anti-mIL-6 monoclonal antibody MP5-20F3 (10 μg/mL, eBiosciences) or Stattic (2 μM, Calbiochem) on differentiated podocytes was applied during 16 hours. After stimulation, podocytes were scrapped in Phosphosafe buffer for protein extraction or in RLT buffer for total RNA extraction.

p57 [2] = assay: p57 immunostaining on kidney sections of NTS-challenged mice; assay type: in vivo; conditions: NTS-induced decrease; anti-miR-92a administration
Procedure: (§1) Deparaffinized kidney sections were incubated for 30 minutes at 95° C. in the target retrieval solution (S1699, Dako), then in peroxidase blocking reagent (S2001, Dako), blocked in PBS containing 5% BSA and immunostained against phospho-STAT3 (Tyr705) (Cell Signaling Technology) and phospho-STAT3 (Tyr705) (Millipore), STAT3 (Cell Signaling Technology), podocalyxin (R&D systems), Ki-67 (Abeam) and p57 (Santa Cruz Technology). […] For STAT3 and podocalyxin immunofluorescence, primary antibody incubation was followed by a secondary rabbit anti-goat IgG AF488-conjugated antibody (Invitrogen, 1:400) and a secondary rabbit anti-goat IgG AF594-conjugated antibody (Invitrogen, 1:400) respectively. Podocyte culture cells were immunostained against podocin (ab50339 Abeam), nephrin (ab58968 Abeam), WTI (ab15249 Abeam) or p57 (Santa Cruz Biotechnology). The nuclei were stained using DAPI. Images were obtained with an Axioimager Z1 apotome (Zeiss).
For preventive strategy, antagomiR treatment (12 mg/kg) started 3 days before NTS injection. AntagomiRs (VBC biotech, Vienna) were delivered by retro-orbital i.v. injections under brief anesthesia. Second and third injections were performed on days 1 and 3 with NTS injection. For curative strategy, antagomir were injected on days 4, 5 and 8 after NTS. A scramble antagomiR (Antagomir-Control) was used as control. […]

p57 [3] = assay: p57 protein expression in transfected podocytes (western blot, immunofluorescence); assay type: cell-based, mouse; conditions: anti-miR-92a transfected podocytes
Procedure: as §1
After extraction from glomeruli or podocytes with lysis buffer, proteins were quantified by BCA protein assay kit (iNtRON Biotechnology). Samples were resolved on 4-12% Bis-Tris Criterion XT gels (Bio-Rad) then transferred to a polyvinylidene difloride membrane. […] Protein loading was monitored by using the rat anti-tubulin antibody (Abeam). […] Densitometric analysis with ImageJ software was used for quantification. […]

[4] = test system: miR-17, miR-18a, miR-19a and miR-20a; assay: RT-qPCR of other miR-17-92 cluster members in isolated glomeruli of NTS-challenged mice; assay type: in vivo; conditions: antagomiR 12 mg/kg i.v., preventive strategy; 10 days after NTS
Procedure: […] U6 snRNA was used as endogenous control.
For preventive strategy, antagomiR treatment (12 mg/kg) started 3 days before NTS injection. AntagomiRs (VBC biotech, Vienna) were delivered by retro-orbital i.v. injections under brief anesthesia. Second and third injections were performed on days 1 and 3 with NTS injection. For curative strategy, antagomir were injected on days 4, 5 and 8 after NTS. A scramble antagomiR (Antagomir-Control) was used as control. The sequences were obtained from previously published manuscript (66). In the miR-92 antagomir and control antagomir, the 2′O RNA base are methylated followed by first two bases and last 3 bases are phosphorothiated to increase the stability of antagomir from degradation. In addition, a cholesterol-TEG was added at the 3′ for easy entry of antagomir into the cells. AntagomiR-Control (SEQ ID NO: 7, anti-miR-ctrl): 5′-[…]-3′ and antagomiR-92a (SEQ ID NO: 8, anti-miR-92a): 5′-[…]-3′ as shown to be effective after in vivo administration in kidneys (34, 67). Saline-treated mice were used as control of the scramble antagomiR.

miR-92a [5] = assay: RT-qPCR for miR-92a in transfected primary podocytes; assay type: cell-based, mouse; conditions: transfection with anti-miR-92a inhibitor (Ambion, 50 nM); normalized to U6
STAT3 = STAT3 protein level in anti-miR-92a transfected podocytes; assay type: cell-based, mouse; conditions: data not shown
Procedure: Anti-miR-Control#1 was used as control (All from Ambion, 50 nM).

Molecule | MicroRNA-92a expression in kidney (miR-92a [1]; NTS-challenged Pod-Stat3 WT animals treated with Stattic, in situ hybridization, confirmed by RT-qPCR) | migratory phenotype of podocytes (primary podocytes) | migratory phenotype of podocytes (primary podocytes; listed as STAT3 inhibitor) | p57 expression in glomeruli (p57 [2]) | p57 expression (p57 [3]) | miR-92a expression in isolated glomeruli during RPGN (miR-92a [1]; antagomiR 12 mg/kg i.v. retro-orbital, preventive strategy, 10 days after NTS) | levels of others miR of 17-92 cluster in isolated glomeruli [4] | miR-92a expression in primary culture of podocytes, change (miR-92a [5]) | STAT3 protein level (STAT3)
O=[N+]([O-])c1ccc2c(c1)S(=O)(=O)C=C2 [Stattic] | not increased | inhibited | little or no effect | – | – | – | – | – | –
anti-miR-92a: 2′O-methylated, end-phosphorothioated antagomir with 3′ cholesterol-TEG, SEQ ID NO: 8, 5′-CAGGCCGGGACAAGUGCAAUA-3′ (VBC biotech) (listed as RNA, chemistry not fully specified) | – | – | – | rescued | increase | specific inhibition | without modify | −71% | did not affect
